Measured values published in patent US7348350B2, “Pyrazolyl biphenyl carboxamides and the use thereof for controlling undesirable microorganisms” (Bayer CropScience AG, priority 2000, dated 2008).

Legend:
[1] = logP by HPLC on reversed-phase column (C 18), EEC Directive 79/831 Annex V.A8; format: physicochemical; conditions: reversed-phase HPLC column (C 18)
Method: The logP values given in the Preparation Examples and Tables above were determined in accordance with EEC Directive 79/831 Annex V.A8 by HPLC (High Performance Liquid Chromatography) on a reversed-phase column (C 18). Temperature: 43° C.
In the acidic range, the determination was carried out at pH 2.3 using the mobile phases 0.1% aqueous phosphoric acid and acetonitrile; linear gradient from 10% acetonitrile to 90% acetonitrile (marked ^a) in the Table).
In the neutral range, the determination was carried out at pH 7.5 using the mobile phases 0.01 molar aqueous phosphate buffer solution and acetonitrile; linear gradient from 10% acetonitrile to 90% acetonitrile (marked ^b) in the Table).

Podosphaera leucotricha = test: Podosphaera test (apple)/protective; format: in vivo; conditions: 240 h, protective, application rate 100 g/ha, evaluation 10 days after inoculation, read-out: % efficacy
Method: (§1) To produce a suitable preparation of active compound, 1 part by weight of active compound is mixed with the stated amounts of solvent and emulsifier, and the concentrate is diluted with water to the desired concentration.
(§2) To test for protective activity, young plants are sprayed with the preparation of active compound at the stated application rate. After the spray coating has dried on, the plants are inoculated with an aqueous spore suspension of the apple mildew pathogen Podosphaera leucotricha. The plants are then placed in a greenhouse at approximately 23° C. and a relative atmospheric humidity of approximately 70%.
(§3) Evaluation is carried out 10 days after the inoculation. 0% means an efficacy which corresponds to that of the control, whereas an efficacy of 100% means that no infection is observed.

Sphaerotheca fuiginea = test: Sphaerotheca test (cucumber)/protective; format: in vivo; conditions: Cucumis sativus, 240 h, protective, application rate 100 g/ha, evaluation 10 days after inoculation, read-out: % efficacy
Method: as §1
as §2, with “Sphaerotheca fuiginea.” for “the apple mildew pathogen Podosphaera leucotricha.”
as §3

Venturia inaequalis = test: Venturia test (apple)/protective; format: in vivo; conditions: 288 h, protective, application rate 100 g/ha, evaluation 12 days after inoculation, read-out: % efficacy
Method: To produce a suitable preparation of active compound, 1 part by weight of active compound is mixed with the stated amount of solvent and emulsifier, and the concentrate is diluted with water to the desired concentration.
To test for protective activity, young plants are sprayed with the preparation of active compound at the stated application rate. After the spray coating has dried on, the plants are inoculated with an aqueous conidia suspension of the apple scab pathogen Venturia inaequalis and then remain in an incubation cabin at approximately 20° C. and 100% relative atmospheric humidity for 1 day.
The plants are then placed in a greenhouse at approximately 21° C. and a relative atmospheric humidity of approximately 90%.
Evaluation is carried out 12 days after the inoculation. 0% means an efficacy which corresponds to that of the control, whereas an efficacy of 100% means that no infection is observed.

Puccinia recondita = test: Puccinia test (wheat)/protective; format: in vivo; conditions: protective, application rate 250 g/ha, evaluation 10 days after inoculation
Method: as §1
To test for protective activity, young plants are sprayed with the preparation of active compound at the stated application rate. After the spray coating has dried on, the plants are sprayed with a conidia suspension of Puccinia recondita. The plants remain in an incubation cabin at 20° C. and 100% relative atmospheric humidity for 48 hours.
The plants are then placed in a greenhouse at a temperature of approximately 20° C. and a relative atmospheric humidity of 80% to promote the development of rust pustules.
as §3

Alternaria solani = test: Alternaria test (tomato)/protective; format: in vivo; conditions: protective, application rate 750 g/ha, evaluation 7 days after inoculation
Method: as §1
To test for protective activity, young tomato plants are sprayed with the preparation of active compound at the stated application rate. 1 day after the treatment, the plants are inoculated with a spore suspension of Alternaria solani and then remain at 100% rel. humidity and 20° C. for 24 h. The plants then remain at 96% rel. atmospheric humidity and a temperature of 20° C.
Evaluation is carried out 7 days after the inoculation. 0% means an efficacy which corresponds to that of the control, whereas an efficacy of 100% means that no infection is observed.

[2] = acidic range, pH 2.3, 0.1% aqueous phosphoric acid and acetonitrile, 43° C. (marked a)

Cc1nn(C)c(F)c1C(=O)Nc1c(F)cc(F)cc1-c1ccc(/C=N/OCc2cccnc2)cc1 [Example 18]
chromatographic logP [1, 2]: 1.69

CO/N=C/c1ccc(-c2ccccc2NC(=O)c2c(C)nn(C)c2F)cc1Cl [Example 46]
pest or weed control at 100 g/ha (Podosphaera leucotricha): 100%
pest or weed control at 100 g/ha (Sphaerotheca fuiginea): 100%
pest or weed control at 100 g/ha (Venturia inaequalis): 100%
chromatographic logP [1, 2]: 3.47

CO/N=C/c1ccc(-c2ccccc2NC(=O)c2c(C)nn(C)c2F)c(C)c1 [Example 26]
% efficacy (Puccinia recondita): 100%
pest or weed control at 100 g/ha (Podosphaera leucotricha): 100%
pest or weed control at 100 g/ha (Sphaerotheca fuiginea): 95%
pest or weed control at 100 g/ha (Venturia inaequalis): 100%
chromatographic logP [1, 2]: 3.4

C/C(=N\OC(C)C)c1ccc(-c2ccccc2NC(=O)c2c(C)nn(C)c2F)cc1 [Example 20]
% efficacy (Puccinia recondita): 100%
pest or weed control at 100 g/ha (Podosphaera leucotricha): 95%
pest or weed control at 100 g/ha (Sphaerotheca fuiginea): 77%
pest or weed control at 100 g/ha (Venturia inaequalis): 100%

CO/N=C/c1ccc(-c2cc(Cl)ccc2NC(=O)c2c(C)nn(C)c2F)cc1 [Example 28]
chromatographic logP [1, 2]: 3.67

Cc1nn(C)c(F)c1C(=O)Nc1ccccc1-c1ccc(/C=N/OC(C)C)cc1 [Example 23]
pest or weed control at 100 g/ha (Podosphaera leucotricha): 100%
pest or weed control at 100 g/ha (Sphaerotheca fuiginea): 95%
pest or weed control at 100 g/ha (Venturia inaequalis): 100%

CO/N=C/c1ccc(-c2ccc(C)cc2NC(=O)c2c(C)nn(C)c2F)cc1 [Example 31]
chromatographic logP [1, 2]: 3.34

CO/N=C/c1cccc(-c2ccc(C(F)(F)F)cc2NC(=O)c2c(C)nn(C)c2F)c1 [Example 42]
chromatographic logP [1, 2]: 4.09

Cc1nn(C)c(F)c1C(=O)Nc1c(F)cc(F)cc1-c1ccc(/C=N/OCc2ccncc2)cc1 [Example 19]
chromatographic logP [1, 2]: 1.6

CO/N=C/c1ccc(-c2cc(C)c(F)cc2NC(=O)c2c(C)nn(C)c2F)cc1 [Example 34]
chromatographic logP [1, 2]: 3.74

CCCCO/N=C\c1ccc(-c2ccccc2NC(=O)c2c(C)nn(C)c2F)cc1 [Example 55]
chromatographic logP [1, 2]: 4.33

CO/N=C/c1ccc(-c2c(C)cccc2NC(=O)c2c(C)nn(C)c2F)cc1 [Example 29]
pest or weed control at 100 g/ha (Podosphaera leucotricha): 94%
pest or weed control at 100 g/ha (Sphaerotheca fuiginea): 83%
pest or weed control at 100 g/ha (Venturia inaequalis): 100%
chromatographic logP [1, 2]: 3.39

CO/N=C/c1ccc(-c2c(C)cccc2NC(=O)c2c(C)nn(C)c2F)cc1Cl [Example 50]
pest or weed control at 100 g/ha (Podosphaera leucotricha): 100%
pest or weed control at 100 g/ha (Sphaerotheca fuiginea): 100%
pest or weed control at 100 g/ha (Venturia inaequalis): 100%
chromatographic logP [1, 2]: 3.89

CCO/N=C/c1ccc(-c2cc(F)cc(F)c2NC(=O)c2c(C)nn(C)c2F)cc1 [Example 11]
pest or weed control at 100 g/ha (Podosphaera leucotricha): 100%
pest or weed control at 100 g/ha (Sphaerotheca fuiginea): 93%
pest or weed control at 100 g/ha (Venturia inaequalis): 100%
chromatographic logP [1, 2]: 3.05

CO/N=C/c1ccc(-c2ccccc2NC(=O)c2c(C)nn(C)c2F)cc1OC [Example 27]
chromatographic logP [1, 2]: 3.15

CO/N=C/c1ccc(-c2ccc(OC)cc2NC(=O)c2c(C)nn(C)c2F)cc1 [Example 32]
chromatographic logP [1, 2]: 3.1

CO/N=C/c1cccc(-c2ccccc2NC(=O)c2c(C)nn(C)c2F)c1 [Example 5]
% efficacy (Alternaria solani): 90%

CCO/N=C(\C)c1ccc(-c2ccccc2NC(=O)c2c(C)nn(C)c2F)cc1 [Example 22]
% efficacy (Puccinia recondita): 100%
pest or weed control at 100 g/ha (Podosphaera leucotricha): 99%
pest or weed control at 100 g/ha (Sphaerotheca fuiginea): 95%
pest or weed control at 100 g/ha (Venturia inaequalis): 100%

Cc1nn(C)c(F)c1C(=O)Nc1ccccc1-c1ccc(/C=N/OCCCl)cc1 [Example 25]
chromatographic logP [1, 2]: 3.38

CO/N=C/c1ccc(-c2ccccc2NC(=O)c2c(C)nn(C)c2F)c(Cl)c1 [Example 10]
chromatographic logP [1, 2]: 3.26

CO/N=C/c1ccc(-c2cc(F)c(F)cc2NC(=O)c2c(C)nn(C)c2F)cc1 [Example 36]
chromatographic logP [1, 2]: 3.48

CO/N=C/c1ccc(-c2cc(Cl)cc(F)c2NC(=O)c2c(C)nn(C)c2F)cc1 [Example 35]
chromatographic logP [1, 2]: 3.11

Cc1nn(C)c(F)c1C(=O)Nc1ccccc1-c1ccc(/C=N/OCc2ccccc2)cc1 [Example 13]
chromatographic logP [1, 2]: 4.02

Cc1nn(C)c(F)c1C(=O)Nc1ccccc1-c1ccc(/C=N/OCc2cccnc2)cc1 [Example 12]
chromatographic logP [1, 2]: 1.75

CO/N=C/c1cccc(-c2cc(C(F)(F)F)cc(Cl)c2NC(=O)c2c(C)nn(C)c2F)c1 [Example 44]
chromatographic logP [1, 2]: 4.63

CO/N=C\c1cc(-c2ccccc2NC(=O)c2c(C)nn(C)c2F)ccc1/C=N/OC [Example 48]
chromatographic logP [1, 2]: 3.25

CO/N=C/c1ccc(-c2ccc(Cl)cc2NC(=O)c2c(C)nn(C)c2F)cc1 [Example 33]
chromatographic logP [1, 2]: 3.79

CCO/N=C/c1ccc(-c2ccccc2NC(=O)c2c(C)nn(C)c2F)cc1OC [Example 38]
chromatographic logP [1, 2]: 3.58

Cc1nn(C)c(F)c1C(=O)Nc1ccccc1-c1ccc(/C=N/OCc2ccncc2)cc1 [Example 16]
chromatographic logP [1, 2]: 1.72

CO/N=C/c1ccc(-c2cc(F)cc(F)c2NC(=O)c2c(C)nn(C)c2F)cc1 [Example 2, N-{3,5-difluoro-4′-[(methoxyimino)methyl]-1,1′-biphenyl-2-yl}-5-fluoro-1,3-dimethyl-1H-pyrazole-4-carboxamide]
% efficacy (Alternaria solani): 90%

CO/N=C(\C)c1cccc(-c2ccccc2NC(=O)c2c(C)nn(C)c2F)c1 [Example 7]
% efficacy (Alternaria solani): 100%
chromatographic logP [1, 2]: 3.2

CO/N=C/c1cccc(-c2cc(OC(F)(F)F)ccc2NC(=O)c2c(C)nn(C)c2F)c1 [Example 43]
chromatographic logP [1, 2]: 4.06

CO/N=C/c1ccc(-c2cc(F)ccc2NC(=O)c2c(C)nn(C)c2F)cc1 [Example 37]
pest or weed control at 100 g/ha (Podosphaera leucotricha): 100%
pest or weed control at 100 g/ha (Sphaerotheca fuiginea): 77%
pest or weed control at 100 g/ha (Venturia inaequalis): 100%
chromatographic logP [1, 2]: 3.01

Cc1nn(C)c(F)c1C(=O)Nc1c(F)cc(F)cc1-c1ccc(/C=N/OCc2ccccn2)cc1 [Example 15]
chromatographic logP [1, 2]: 1.81

Cc1nn(C)c(F)c1C(=O)Nc1c(F)cc(F)cc1-c1ccc(/C=N/OCc2ccccc2)cc1 [Example 14]
chromatographic logP ([1]; neutral range, pH 7.5, 0.01 molar aqueous phosphate buffer and acetonitrile, 43° C. (marked b)): 3.68

CCO/N=C/c1ccc(-c2ccccc2NC(=O)c2c(C)nn(C)c2F)c(C)c1 [Example 39]
pest or weed control at 100 g/ha (Podosphaera leucotricha): 100%
pest or weed control at 100 g/ha (Sphaerotheca fuiginea): 97%
pest or weed control at 100 g/ha (Venturia inaequalis): 100%
chromatographic logP [1, 2]: 3.91

CO/N=C/c1ccc(-c2cc(C(F)(F)F)cc(Cl)c2NC(=O)c2c(C)nn(C)c2F)cc1 [Example 40]
chromatographic logP [1, 2]: 4.63

CO/N=C/c1ccc(-c2ccc(F)cc2NC(=O)c2c(C)nn(C)c2F)cc1 [Example 8]
pest or weed control at 100 g/ha (Podosphaera leucotricha): 98%
pest or weed control at 100 g/ha (Venturia inaequalis): 99%
chromatographic logP [1, 2]: 3.39

Cc1nn(C)c(F)c1C(=O)Nc1ccccc1-c1ccc(/C=N/OCc2ccccn2)cc1 [Example 17]
chromatographic logP [1, 2]: 1.89

CCC(C)O/N=C(/C)c1ccc(-c2ccccc2NC(=O)c2c(C)nn(C)c2F)cc1 (stereo not shown) [Example 51]
chromatographic logP [1, 2]: 4.67

Cc1nn(C)c(F)c1C(=O)Nc1ccccc1-c1ccc(/C=N\O)cc1 [Example 53]
chromatographic logP [1, 2]: 2.24

CO/N=C/c1ccc(-c2ccccc2NC(=O)c2c(C)nn(C)c2F)cc1C [Example 47]
pest or weed control at 100 g/ha (Podosphaera leucotricha): 100%
pest or weed control at 100 g/ha (Sphaerotheca fuiginea): 100%
pest or weed control at 100 g/ha (Venturia inaequalis): 100%
chromatographic logP [1, 2]: 3.3

CO/N=C/c1cccc(-c2ccc(Cl)cc2NC(=O)c2c(C)nn(C)c2F)c1 [Example 41]
chromatographic logP [1, 2]: 3.89
